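In this assay, cells in 96-well plates receive the compound at five concentrations for 48 hours. Endpoints are linearly interpolated between the surrounding concentrations. GI50 = concentration required for 50% inhibition of growth.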 Activity calls are given as the source filed them. Rule as the data show it: active = GI50 up to about 1.1 µM and inactive = higher.
Tests used:
Assay in all cases: growth of human tumour cells (NCI), 48 h
[1] = tested on: SK-OV-3
[2] = tested on: ACHN
[3] = tested on: HCT-15
[4] = tested on: EKVX
[5] = tested on: NCI-H23
[6] = tested on: HOP-62
[7] = tested on: MOLT-4
[8] = tested on: SK-MEL-2
[9] = tested on: SNB-19
[10] = tested on: UACC-257
[11] = tested on: LOX IMVI
[12] = tested on: OVCAR-5
[13] = tested on: SF-539
[14] = tested on: IGROV-1
[15] = tested on: HCC 2998
[16] = tested on: KM12
[17] = tested on: NCI-H226
[18] = tested on: SR

Compound	GI50 [1]	GI50 [2]	GI50 [3] [µM]	GI50 [4]	GI50 [5]	GI50 [6]	GI50 [7]	GI50 [8]	GI50 [9]	GI50 [10]	GI50 [11]	GI50 [12]	GI50 [13]	GI50 [14]	GI50 [15]	GI50 [16]	GI50 [17]	GI50 [18]
Cc1ccc(-c2cc(=O)c3cc(C)c(C)c(C(=O)O)c3o2)cc1	> 100 µM (inactive)	> 100 µM (inactive)	> 100	> 100 µM (inactive)	> 100 µM (inactive)	> 100 µM (inactive)	> 100 µM (inactive)	> 100 µM (inactive)	> 100 µM (inactive)	> 100 µM (inactive)	> 100 µM (inactive)	> 100 µM (inactive)	29.9 µM (inactive)	> 100 µM (inactive)	> 100 µM (inactive)	> 100 µM (inactive)		
Cc1cc(=O)n(-c2ccccc2C)c(C)n1	> 100 µM (inactive)	> 100 µM (inactive)	> 100	> 100 µM (inactive)	> 100 µM (inactive)	> 100 µM (inactive)	> 100 µM (inactive)	> 100 µM (inactive)	> 100 µM (inactive)	> 100 µM (inactive)	> 100 µM (inactive)	> 100 µM (inactive)	> 100 µM (inactive)	> 100 µM (inactive)	> 100 µM (inactive)	> 100 µM (inactive)	> 100 µM (inactive)	
Cc1ccc(/C=C2\CCCC(C(NO)c3ccc(C)cc3)C2=NO)cc1 (stereo not given)	> 100 µM (inactive)	> 100 µM (inactive)	36.3	44.4 µM (inactive)	24 µM (inactive)	59.8 µM (inactive)	19.1 µM (inactive)	69.2 µM (inactive)	83.6 µM (inactive)	29.6 µM (inactive)			39.6 µM (inactive)	> 100 µM (inactive)	16.8 µM (inactive)	21.2 µM (inactive)		
CCc1ccccc1NC(=O)C1=C(C)NC(C)=C(C(=O)Nc2c(CC)cccc2CC)C1c1ccc2c(c1)OCO2 (stereo not given)	34.5 µM (inactive)	20.5 µM (inactive)		24.2 µM (inactive)	16.7 µM (inactive)	19.7 µM (inactive)	19.1 µM (inactive)	15.2 µM (inactive)	24.9 µM (inactive)	17.7 µM (inactive)	16.9 µM (inactive)	18.2 µM (inactive)	21.2 µM (inactive)	25.4 µM (inactive)	16.5 µM (inactive)	16.1 µM (inactive)	19.1 µM (inactive)	
COc1ccc(/C=C2\CCC(C)(CN(C)C)C2=O)cc1 (stereo not given)		> 100 µM (inactive)	60.8	> 100 µM (inactive)	> 100 µM (inactive)	> 100 µM (inactive)	> 100 µM (inactive)	> 100 µM (inactive)	6.18 µM (inactive)	> 100 µM (inactive)	> 100 µM (inactive)	> 100 µM (inactive)	> 100 µM (inactive)	> 100 µM (inactive)	> 100 µM (inactive)	> 100 µM (inactive)	> 100 µM (inactive)	> 10 µM (inactive)
CCN1C[C@]2(C)CC[C@H](OC)C34C1C([C@H](OC(C)=O)[C@@H]32)[C@@]1(OC)C[C@H](OC)[C@H]2C[C@@H]4[C@@H]1[C@H]2O	> 100 µM (inactive)	> 100 µM (inactive)	87.5	> 100 µM (inactive)	> 100 µM (inactive)	> 100 µM (inactive)	> 100 µM (inactive)	> 100 µM (inactive)	> 100 µM (inactive)	> 100 µM (inactive)	> 100 µM (inactive)	> 100 µM (inactive)	> 100 µM (inactive)	> 100 µM (inactive)	> 100 µM (inactive)	> 100 µM (inactive)	> 100 µM (inactive)	
CSc1nnc(C(C#N)C#N)nn1	> 100 µM (inactive)		> 100	> 100 µM (inactive)	> 100 µM (inactive)	> 100 µM (inactive)	> 100 µM (inactive)		> 100 µM (inactive)	> 100 µM (inactive)	> 100 µM (inactive)	> 100 µM (inactive)	> 100 µM (inactive)	> 100 µM (inactive)	> 100 µM (inactive)	> 100 µM (inactive)	> 100 µM (inactive)	> 100 µM (inactive)
COc1cc2oc(-c3ccccc3)cc(=O)c2c(O)c1C	> 100 µM (inactive)	> 100 µM (inactive)	> 100	> 100 µM (inactive)	> 100 µM (inactive)	> 100 µM (inactive)	> 100 µM (inactive)	> 100 µM (inactive)		> 100 µM (inactive)	> 100 µM (inactive)	> 100 µM (inactive)	> 100 µM (inactive)	> 100 µM (inactive)	> 100 µM (inactive)	> 100 µM (inactive)	> 100 µM (inactive)	> 100 µM (inactive)
